Data on 18 compounds can be found in US20230092890A1, “1, 3, 4-Oxadiazole derivative compounds as histone deacetylase 6 inhibitor, and the pharmaceutical composition comprising the same” (Chong Kun Dang Pharmaceutical Corp., priority 2019, published 2023).

One assay deals with T1, HDAC6 human recombinant (Homo sapiens, UniProt Q9UBN7).
T1 construct: purchased Calbiochem 382180
T1 sequence (Q9UBN7 1-1215): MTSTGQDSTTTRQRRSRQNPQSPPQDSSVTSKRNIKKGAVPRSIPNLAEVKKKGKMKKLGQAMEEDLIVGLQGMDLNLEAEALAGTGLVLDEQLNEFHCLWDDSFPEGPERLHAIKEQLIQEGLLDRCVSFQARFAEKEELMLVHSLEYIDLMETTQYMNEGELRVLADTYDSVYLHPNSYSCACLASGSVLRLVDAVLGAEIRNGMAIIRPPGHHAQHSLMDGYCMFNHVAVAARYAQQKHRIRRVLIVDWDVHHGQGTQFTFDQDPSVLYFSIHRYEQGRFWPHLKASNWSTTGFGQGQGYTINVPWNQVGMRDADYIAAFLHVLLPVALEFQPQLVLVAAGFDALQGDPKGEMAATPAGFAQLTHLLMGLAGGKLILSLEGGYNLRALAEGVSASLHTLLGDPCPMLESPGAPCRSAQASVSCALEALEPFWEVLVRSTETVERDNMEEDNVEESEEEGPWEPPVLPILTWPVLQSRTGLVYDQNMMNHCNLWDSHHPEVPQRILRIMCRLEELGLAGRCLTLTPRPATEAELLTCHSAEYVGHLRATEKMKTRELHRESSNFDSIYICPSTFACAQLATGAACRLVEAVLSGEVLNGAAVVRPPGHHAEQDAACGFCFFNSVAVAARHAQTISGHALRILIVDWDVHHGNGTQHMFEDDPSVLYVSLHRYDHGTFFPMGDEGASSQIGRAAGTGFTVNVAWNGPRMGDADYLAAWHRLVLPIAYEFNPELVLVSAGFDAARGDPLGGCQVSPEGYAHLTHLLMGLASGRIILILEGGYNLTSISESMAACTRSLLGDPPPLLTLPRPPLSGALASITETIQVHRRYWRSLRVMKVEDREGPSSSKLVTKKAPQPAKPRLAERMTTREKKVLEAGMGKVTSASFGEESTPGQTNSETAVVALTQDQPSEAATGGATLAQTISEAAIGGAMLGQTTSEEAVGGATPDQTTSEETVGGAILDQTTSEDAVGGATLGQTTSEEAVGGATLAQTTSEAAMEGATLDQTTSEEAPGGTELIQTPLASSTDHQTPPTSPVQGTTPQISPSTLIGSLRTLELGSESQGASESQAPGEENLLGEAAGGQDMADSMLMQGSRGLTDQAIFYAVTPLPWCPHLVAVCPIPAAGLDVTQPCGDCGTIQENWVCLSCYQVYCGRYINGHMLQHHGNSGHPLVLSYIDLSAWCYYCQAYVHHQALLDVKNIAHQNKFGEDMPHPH
Put plainly: HDAC enzyme activity inhibition (in vitro), HDAC6 assay. The format is biochemical. The note with it: samples at 0.1, 1, 10, 100 and 1000 nM; 37° C. 60 minutes; fluorescence Ex 390, Em 460; read-out: HDAC6 IC50. The method, then:
A HDAC enzyme inhibitory capacity of a test material was measured by using HDAC1 Fluorimetric Drug Discovery Assay Kit (Enzolifesciences: BML-AK511) and HDAC6 human recombinant (Calbiochem: 382180). For a HDAC1 assay, samples were treated at a concentration of 100, 1000 and 10000 nM. […] After the above sample treatment, a reaction was continued at 37° C. for 60 minutes, then treated with a developer, and then subjected to a reaction at 37° C. for 30 minutes, after which fluorescence intensity (Ex 390, Em 460) was measured by using FlexStatin3 (Molecular device).

Another assay concerns the target T2, HDAC1 (Homo sapiens, UniProt Q13547).
T2 construct: purchased Enzolifesciences BML-AK511
Put plainly: HDAC enzyme activity inhibition (in vitro), HDAC1 Fluorimetric Drug Discovery Assay Kit. Format: biochemical. Conditions: samples at 100, 1000 and 10000 nM; 37° C. 60 minutes; fluorescence Ex 390, Em 460; read-out: HDAC1 IC50. The method, then:
<Experimental Example 1> Identification of HDAC Enzyme Activity Inhibition (In Vitro)
A selective HDAC6 inhibitor is important for selectivity of HDAC1 inhibition, which is a cause of side effects, and thus HDAC1/6 enzyme selectivity and cell selectivity (HDAC1: histone acetylation/HDAC6: tubulin acetylation) were identified.
A HDAC enzyme inhibitory capacity of a test material was measured by using HDAC1 Fluorimetric Drug Discovery Assay Kit (Enzolifesciences: BML-AK511) and HDAC6 human recombinant (Calbiochem: 382180). For a HDAC1 assay, samples were treated at a concentration of 100, 1000 and 10000 nM. For a HDAC6 assay, samples were treated at a concentration of 0.1, 1, 10, 100 and 1000 nM. After the above sample treatment, a reaction was continued at 37° C. for 60 minutes, then treated with a developer, and then subjected to a reaction at 37° C. for 30 minutes, after which fluorescence intensity (Ex 390, Em 460) was measured by using FlexStatin3 (Molecular device).

T2 sequence (Q13547 whole entry): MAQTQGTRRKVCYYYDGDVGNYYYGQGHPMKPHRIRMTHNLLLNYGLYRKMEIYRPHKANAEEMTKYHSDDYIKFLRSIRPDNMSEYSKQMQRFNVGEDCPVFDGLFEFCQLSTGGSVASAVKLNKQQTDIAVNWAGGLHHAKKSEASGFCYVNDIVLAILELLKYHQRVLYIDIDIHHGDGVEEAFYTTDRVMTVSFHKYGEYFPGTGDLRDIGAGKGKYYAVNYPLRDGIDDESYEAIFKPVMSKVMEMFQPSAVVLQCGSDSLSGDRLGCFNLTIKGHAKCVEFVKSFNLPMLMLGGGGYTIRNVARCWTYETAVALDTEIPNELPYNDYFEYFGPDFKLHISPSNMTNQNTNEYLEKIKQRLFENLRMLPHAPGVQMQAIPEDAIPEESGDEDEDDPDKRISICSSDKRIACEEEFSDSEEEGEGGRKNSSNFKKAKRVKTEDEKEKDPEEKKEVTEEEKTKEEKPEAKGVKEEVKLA

A word on the IC50: it is the concentration that gives 50% inhibition. On to `CN1CCC(n2c(=O)n(Cc3ccc(-c4nnc(C(F)F)o4)cc3F)c3ccccc32)CC1` [Compound 1, 1-(4-(5-(difluoromethyl)-1,3,4-oxadiazole-2-yl)-2-fluorobenzyl)-3-(1-methylpiperidine-4-yl)-1,3-dihydro-2H-benzo[d]imidazole-2-one], for which the IC50 was 0.236 µM at HDAC6 human recombinant and greater than 10 µM on HDAC1.

On to `O=c1n(CCN2CCOCC2)c2ccccc2n1Cc1ccc(-c2nnc(C(F)F)o2)cc1F` [Compound 2, 1-(4-(5-(difluoromethyl)-1,3,4-oxadiazole-2-yl)-2-fluorobenzyl)-3-(2-morpholinoethyl)-1,3-dihydro-2H-benzo[d]imidazole-2-one], for which the 50% inhibitory concentration (IC50) on HDAC6 human recombinant was 0.203 µM; at HDAC1, greater than 10 µM.

Consider `CN(C)CCn1c(=O)n(Cc2ccc(-c3nnc(C(F)F)o3)cn2)c2ccccc21` [Compound 3, 1-((5-(5-(difluoromethyl)-1,3,4-oxadiazole-2-yl)pyridine-2-yl)methyl)-3-(2-(dimethylamino)ethyl)-1,3-dihydro-2H-benzo[d]imidazole-2-one], for which the IC50 at HDAC6 human recombinant is 0.115 µM; on HDAC1, greater than 10 µM.

For the compound `CN1CCC(n2c(=O)n(Cc3ccc(-c4nnc(C(F)F)o4)cn3)c3ccccc32)CC1` [Compound 4, 1-((5-(5-(difluoromethyl)-1,3,4-oxadiazole-2-yl)pyridine-2-yl)methyl)-3-(1-methylpiperidine-4-yl)-1,3-dihydro-2H-benzo[d]imidazole-2-one], the concentration for half-maximal inhibition (IC50) at HDAC6 human recombinant is 0.178 µM; on HDAC1, greater than 10 µM.

As for `CN1CCC(n2c(=O)n(Cc3ccc(-c4nnc(C(F)F)o4)cc3)c3ccccc32)CC1` [Compound 5, 1-(4-(5-(difluoromethyl)-1,3,4-oxadiazole-2-yl)benzyl)-3-(1-methylpiperidine-4-yl)-1,3-dihydro-2H-benzo[d]imidazole-2-one], the IC50 was 0.34 µM at HDAC6 human recombinant and greater than 10 µM on HDAC1.

`CN1CCC(n2c(=O)n(Cc3ccc(-c4nnc(C(F)F)o4)cn3)c3ccccc32)C1` (centres unmarked) [Compound 6, 1-((5-(5-(difluoromethyl)-1,3,4-oxadiazole-2-yl)pyridine-2-yl)methyl)-3-(1-methylpyrrolidine-3-yl)-1,3-dihydro-2H-benzo[d]imidazole-2-one]: the values for the IC50 at HDAC6 human recombinant and on HDAC1 were 0.203 µM and greater than 10 µM, respectively.

In the case of `CN1CC(n2c(=O)n(Cc3ccc(-c4nnc(C(F)F)o4)cn3)c3ccccc32)C1` [Compound 7, 1-((5-(5-(difluoromethyl)-1,3,4-oxadiazole-2-yl)pyridine-2-yl)methyl)-3-(1-methylazetidine-3-yl)-1,3-dihydro-2H-benzo[d]imidazole-2-one], the IC50 on HDAC6 human recombinant was 0.264 µM; at HDAC1, greater than 10 µM.

`CN1CCC(N2Cc3ccccc3N(Cc3ccc(-c4nnc(C(F)F)o4)cn3)C2=O)CC1` [Compound 8, 1-((5-(5-(difluoromethyl)-1,3,4-oxadiazole-2-yl)pyridine-2-yl)methyl)-3-(1-methylpiperidine-4-yl)-3,4-dihydroquinazoline-2(1H)-one]: the values for the concentration for half-maximal inhibition (IC50) at HDAC6 human recombinant and on HDAC1 were 0.171 µM and greater than 10 µM, respectively.

As for `CN1CC(N2Cc3ccccc3N(Cc3ccc(-c4nnc(C(F)F)o4)cn3)C2=O)C1` [Compound 9, 1-((5-(5-(difluoromethyl)-1,3,4-oxadiazole-2-yl)pyridine-2-yl)methyl)-3-(1-methylazetidine-3-yl)-3,4-dihydroquinazoline-2(1H)-one], the IC50 at HDAC6 human recombinant is 0.332 µM; at HDAC1, greater than 10 µM.

`CN1CCC(Cn2c(=O)n(Cc3ccc(-c4nnc(C(F)F)o4)cn3)c3ccccc32)CC1` [Compound 10, 1-((5-(5-(difluoromethyl)-1,3,4-oxadiazole-2-yl)pyridine-2-yl)methyl)-3-((1-methylpiperidine-4-yl)methyl)-1,3-dihydro-2H-benzo[d]imidazole-2-one]: the half-inhibitory concentration (IC50) on HDAC6 human recombinant was 0.222 µM; on HDAC1 it was greater than 10 µM.

As to `O=c1n(Cc2ccc(-c3nnc(C(F)F)o3)cn2)c2ccccc2n1C1COC1` [Compound 11, 1-((5-(5-(difluoromethyl)-1,3,4-oxadiazole-2-yl)pyridine-2-yl)methyl)-3-(oxetan-3-yl)-1,3-dihydro-2H-benzo[d]imidazole-2-one], the IC50 at HDAC6 human recombinant was 0.241 µM; on HDAC1 it was greater than 10 µM.

On to `O=c1n(Cc2ccc(-c3nnc(C(F)F)o3)cn2)c2ccccc2n1C1CCOCC1` [Compound 12, 1-((5-(5-(difluoromethyl)-1,3,4-oxadiazole-2-yl)pyridine-2-yl)methyl)-3-(tetrahydro-2H-pyran-4-yl)-1,3-dihydro-2H-benzo[d]imidazole-2-one], for which the figures for the half-inhibitory concentration (IC50) on HDAC6 human recombinant and on HDAC1 were 0.16 µM and greater than 10 µM, respectively.

With `O=c1n(Cc2ccc(-c3nnc(C(F)F)o3)cn2)c2ccccc2n1C1CCS(=O)(=O)CC1` [Compound 13, 1-((5-(5-(difluoromethyl)-1,3,4-oxadiazole-2-yl)pyridine-2-yl)methyl)-3-(1,1-dioxydotetrahydro-2H-thiopyran-4-yl)-1,3-dihydro-2H-benzo[d]imidazole-2-one], the IC50 on HDAC6 human recombinant was 0.161 µM; on HDAC1, greater than 10 µM.

Take `CCN1CCC(n2c(=O)n(Cc3ccc(-c4nnc(C(F)F)o4)cc3F)c3ccccc32)CC1` [Compound 14, 1-(4-(5-(difluoromethyl)-1,3,4-oxadiazole-2-yl)-2-fluorobenzyl)-3-(1-ethylpiperidine-4-yl)-1,3-dihydro-2H-benzo[d]imidazole-2-one]: the IC50 at HDAC6 human recombinant was 0.209 µM; on HDAC1, greater than 10 µM.

With `O=c1n(Cc2ccc(-c3nnc(C(F)F)o3)cn2)c2cc(F)ccc2n1C1CCN(C2CCC2)CC1` [Compound 52, 1-(1-cyclobutylpiperidine-4-yl)-3-((5-(5-(difluoromethyl)-1,3,4-oxadiazole-2-yl)pyridine-2-yl)methyl)-5-fluoro-1,3-dihydro-2H-benzo[d]imidazole-2-one], the half-inhibitory concentration (IC50) on HDAC1 was greater than 10 µM.

With `O=c1n(Cc2ccc(-c3nnc(C(F)F)o3)cn2)c2cc(F)ccc2n1C1CCS(=O)(=O)CC1` [Compound 188, 3-((5-(5-(difluoromethyl)-1,3,4-oxadiazole-2-yl)pyridine-2-yl)methyl)-1-(1,1-dioxydotetrahydro-2H-thiopyran-4-yl)-5-fluoro-1,3-dihydro-2H-benzo[d]imidazole-2-one], the half-inhibitory concentration (IC50) at HDAC1 is greater than 10 µM.

Consider `Cn1nccc1-c1cc2c(cc1F)n(Cc1ccc(-c3nnc(C(F)F)o3)cn1)c(=O)n2C` [Compound 226, 1-((5-(5-(difluoromethyl)-1,3,4-oxadiazole-2-yl)pyridine-2-yl)methyl)-6-fluoro-3-methy 1-5-(1-methyl-1H-pyrazole-5-yl)-1,3-dihydro-2H-benzo[d]imidazole-2-one], for which, at HDAC1, the IC50 was greater than 10 µM.

Regarding `CN1CCN(c2cc3c(cc2F)n(Cc2ccc(-c4nnc(C(F)F)o4)cn2)c(=O)n3C)CC1` [Compound 260, 1-((5-(5-(difluoromethyl)-1,3,4-oxadiazole-2-yl)pyridine-2-yl)methyl)-6-fluoro-3-methy 1-5-(4-methylpiperazine-1-yl)-1,3-dihydro-2H-benzo[d]imidazole-2-one], on HDAC1, the IC50 was greater than 10 µM.
